Measured values as given in patent publication US8563714B2, “Bridged spiro [2.4] heptane derivatives as ALX receptor and/or FPRL2 agonists” (Actelion Pharmaceuticals Ltd., priority 2009, dated 2013).

What was measured:
human ALX receptor = biological target: T1, human ALX receptor (Homo sapiens, UniProt P25090); assay: Intracellular calcium measurements (FLIPR), agonistic activity in HEK293-hALXR-Gα16 cells; format: cell-based; conditions: Fluo-4 calcium FLIPR, normalized to WKYMVm 10 nM
T1 construct: expressed in transfected cells; host or cells: HEK293 (HEK293-hALXR-Gα16)
T1 sequence (P25090 1-351): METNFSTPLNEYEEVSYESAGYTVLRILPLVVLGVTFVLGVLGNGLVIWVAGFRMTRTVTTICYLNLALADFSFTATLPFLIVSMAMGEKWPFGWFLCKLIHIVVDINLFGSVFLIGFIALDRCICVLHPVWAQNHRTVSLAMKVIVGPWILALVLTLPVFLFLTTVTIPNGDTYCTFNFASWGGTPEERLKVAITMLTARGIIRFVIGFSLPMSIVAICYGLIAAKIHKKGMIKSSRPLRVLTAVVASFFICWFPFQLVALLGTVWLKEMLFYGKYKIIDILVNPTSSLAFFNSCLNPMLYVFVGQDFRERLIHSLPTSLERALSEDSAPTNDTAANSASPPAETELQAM
Outline: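 HEK293 cells expressing hALXR and Gα16 were loaded with 1 μM Fluo-4 AM and 20 mM HEPES for 60 min at 37°C, then exposed to serially diluted compound. FLIPR fluorescence was read at ex 488/em 540 nm. Baseline-subtracted peak responses were normalized to 10 nM WKYMVm.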

human FPRL2 = biological target: T2, human FPRL2 (Homo sapiens, UniProt P25089); assay: Intracellular calcium measurements (FLIPR), agonistic activity in HEK293-hFPRL2-Gα16 cells; format: cell-based; conditions: Fluo-4 calcium FLIPR, normalized to GLY14-Humanin 100 nM
T2 construct: expressed in transfected cells; host or cells: HEK293 (HEK293-hFPRL2-Gα16)
T2 sequence (P25089 1-353): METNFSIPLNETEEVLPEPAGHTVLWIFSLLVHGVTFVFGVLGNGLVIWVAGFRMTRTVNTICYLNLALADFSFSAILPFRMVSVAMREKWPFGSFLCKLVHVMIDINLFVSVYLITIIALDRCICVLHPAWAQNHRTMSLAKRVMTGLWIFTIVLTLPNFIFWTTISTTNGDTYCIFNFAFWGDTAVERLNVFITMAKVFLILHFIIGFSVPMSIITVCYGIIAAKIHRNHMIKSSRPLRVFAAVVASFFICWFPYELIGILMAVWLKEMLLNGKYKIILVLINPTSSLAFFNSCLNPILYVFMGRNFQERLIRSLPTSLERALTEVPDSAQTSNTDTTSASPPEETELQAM
Outline: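 Peak values after baseline subtraction are expressed relative to 100 nM Gly14-Humanin; compounds diluted in assay buffer from 10 mM DMSO stocks.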

Structure (SMILES)	EC50 (human ALX receptor) [nM]	EC50 (human FPRL2) [nM]
CC(=O)c1ccc(CNC(=O)C2C(C(=O)NCCCCN3CCCC3)C3CCC2C32CC2)o1 [Example 196, (5R)—N^5-(5-Acetyl-furan-2-yl-methyl)-(6R)—N^6-(4-pyrrolidin-1-yl-butyl)-(4S,7R)-[4,7-ethylene-spiro[2.4]heptane]-5,6-dicarboxamide]	21	1080
CCN1CCN(CCCCNC(=O)[C@H]2[C@H](C(=O)Nc3ccc(Br)cc3)[C@@H]3C=C[C@H]2C32CC2)CC1 [Example 208, (5R)—N^5-(4-Bromophenyl)-(6R)—N^6-(4-(4-ethyl-piperazin-1-yl)-butyl)-(4S,7R)-[4,7-ethenylene-spiro[2.4]heptane]-5,6-dicarboxamide]	2.3	15
O=C(NCCCCN1CCCCC1)[C@H]1[C@H](C(=O)Nc2ccc(Br)cc2)[C@@H]2C=C[C@H]1C21CC1 [Example 209, (5R)—N^5-(4-Bromophenyl)-(6R)—N^6-(4-piperidino-butyl)-(4S,7R)-[4,7-ethenylene-spiro[2.4]heptane]-5,6-dicarboxamide]	0.07	58
O=C(NCCCCN1CCC1)[C@H]1[C@H](C(=O)Nc2ccc(Br)cc2)[C@@H]2C=C[C@H]1C21CC1 [Example 210, (5R)—N^5-(4-Bromophenyl)-(6R)—N^6-(4-(azetidin-1-yl)butyl)-(4S,7R)-[4,7-ethenylene-spiro[2.4]heptane]-5,6-dicarboxamide]	0.4	200
O=C(NCCCCN1CCOCC1)[C@H]1[C@H](C(=O)Nc2ccc(Br)cc2)[C@@H]2C=C[C@H]1C21CC1 [Example 211, (5R)—N^5-(4-Bromophenyl)-(6R)—N^6-(4-morpholino-butyl)-(4S,7R)-[4,7-ethenylene-spiro[2.4]heptane]-5,6-dicarboxamide]	0.53	423
CN1CCCN(CCCCNC(=O)[C@H]2[C@H](C(=O)Nc3ccc(Br)cc3)[C@@H]3C=C[C@H]2C32CC2)CC1 [Example 212, (5R)—N^5-(4-Bromophenyl)-(6R)—N^6-(4-(4-methyl-1,4-diazepan-1-yl)butyl)-(4S,7R)-[4,7-ethenylene-spiro[2.4]heptane]-5,6-dicarboxamide]	0.89	12
CN1CCN(CCCCNC(=O)[C@H]2[C@H](C(=O)Nc3ccc(Br)cc3)[C@@H]3C=C[C@H]2C32CC2)CC1 [Example 213, (5R)—N^5-(4-Bromophenyl)-(6R)—N^6-(4-(4-methyl-piperazin-1-yl)butyl)-(4S,7R)-[4,7-ethenylene-spiro[2.4]heptane]-5,6-dicarboxamide]	4.1	16
O=C(NCCCC(=O)N1CCCC1)[C@H]1[C@H](C(=O)Nc2ccc(Br)cc2)[C@@H]2C=C[C@H]1C21CC1 [Example 214, (5R)—N^5-(4-Bromophenyl)-(6R)—N^6-(4-pyrrolidino-4-oxobutyl)-(4S,7R)-[4,7-ethenylene-spiro[2.4]heptane]-5,6-dicarboxamide]	6.1	338
O=C(NCCOCCN1CCCC1)[C@H]1[C@H](C(=O)Nc2ccc(Br)cc2)[C@@H]2C=C[C@H]1C21CC1 [Example 215, (5R)—N^5-(4-Bromophenyl)-(6R)—N^6-(2-(2-(pyrrolidin-1-yl)ethoxy)ethyl)-(4S,7R)-[4,7-ethenylene-spiro[2.4]heptane]-5,6-dicarboxamide]	0.72	95
O=C(N[C@@H]1CC[C@@H](CN2CCCC2)OC1)[C@H]1[C@H](C(=O)Nc2ccc(Br)cc2)[C@@H]2C=C[C@H]1C21CC1 [Example 216, (5R)—N^5-(4-Bromophenyl)-(6R)—N^6-((3R,6S)-6-(pyrrolidin-1-ylmethyl)tetrahydro-2H-pyran-3-yl)-(4S,7R)-[4,7-ethenylene-spiro[2.4]heptane]-5,6-dicarboxamide]	2.7	297
CC(=O)N1CCN(CCCCNC(=O)[C@H]2[C@H](C(=O)Nc3ccc(Br)cc3)[C@@H]3C=C[C@H]2C32CC2)CC1 [Example 217, (5R)—N^5-(4-Bromophenyl)-(6R)—N^6-(4-(4-acetyl-piperazin-1-yl)butyl)-(4S,7R)-[4,7-ethenylene-spiro[2.4]heptane]-5,6-dicarboxamide]	38	61
O=C(NCCCCN1CC[C@@H](F)C1)[C@H]1[C@H](C(=O)Nc2ccc(Br)cc2)[C@@H]2C=C[C@H]1C21CC1 [Example 219, (5R)—N^5-(4-Bromophenyl)-(6R)—N^6-(4((3R)-fluoropyrrolidino)butyl)-(4S,7R)-[4,7-ethenylene-spiro[2.4]heptane]-5,6-dicarboxamide]	0.3	174
O=C(NCCCCN1CC[C@H](F)C1)[C@H]1[C@H](C(=O)Nc2ccc(Br)cc2)[C@@H]2C=C[C@H]1C21CC1 [Example 220, (5R)—N^5-(4-Bromophenyl)-(6R)—N^6-(4-((3S)-fluoropyrrolidino)butyl)-(4S,7R)-[4,7-ethenylene-spiro[2.4]heptane]-5,6-dicarboxamide]	0.35	235
O=C(NCCCCCN1CCCC1)[C@H]1[C@H](C(=O)Nc2ccc(Br)cc2)[C@@H]2C=C[C@H]1C21CC1 [Example 221, (5R)—N^5-(4-Bromophenyl)-(6R)—N^6-(5-pyrrolidino-pentyl)-(4S,7R)-[4,7-ethenylene-spiro[2.4]heptane]-5,6-dicarboxamide]	0.66	41
O=C(NCCCCN1CCCC1)[C@H]1[C@H](C(=O)Nc2ncc(Br)s2)[C@@H]2C=C[C@H]1C21CC1 [Example 225, (5R)—N^5-(5-Bromo-thiazol-2-yl)-(6R)—N^6-(4-pyrrolidin-1-yl-butyl)-(4S,7R)-[4,7-ethenylene-spiro[2.4]heptane]-5,6-dicarboxamide]	6.4	143
O=C(NCCCCN1CCCC1)[C@H]1[C@H](C(=O)Nc2ncc(Br)s2)[C@@H]2CC[C@H]1C21CC1 [Example 238, (5R)—N^5-(5-Bromo-thiazol-2-yl)-(6R)—N^6-(4-pyrrolidin-1-yl-butyl)-(4S,7R)-[4,7-ethylene-spiro[2.4]heptane]-5,6-dicarboxamide]	22	142
NC(=O)CCNC(=O)[C@H]1[C@H](C(=O)Nc2ncc(Br)s2)[C@@H]2CC[C@H]1C21CC1 [Example 239, (5R)—N^5-(5-Bromo-thiazol-2-yl)-(6R)—N^6-(3-amino-3-oxopropyl)-(4S,7R)-[4,7-ethylene-spiro[2.4]heptane]-5,6-dicarboxamide]	15	> 25000
NC(=O)CCNC(=O)[C@H]1[C@H](C(=O)Nc2ncc(Br)s2)[C@@H]2C=C[C@H]1C21CC1 [Example 240, (5R)—N^5-(5-Bromo-thiazol-2-yl)-(6R)—N^6-(3-amino-3-oxopropyl)-(4S,7R)-[4,7-ethenylene-spiro[2.4]heptane]-5,6-dicarboxamide]	8.1	> 25000
NC(=O)CCNC(=O)[C@H]1[C@H](C(=O)NCc2ccc(Br)cc2)[C@@H]2C=C[C@H]1C21CC1 [Example 241, (5R)—N^5-(4-Bromo-phenyl-methyl)-(6R)—N^6-(3-amino-3-oxopropyl)-(4S,7R)-[4,7-ethenylene-spiro[2.4]heptane]-5,6-dicarboxamide]	240	> 25000
NC(=O)CCNC(=O)[C@H]1[C@H](C(=O)Nc2ccc(Br)nc2)[C@@H]2C=C[C@H]1C21CC1 [Example 242, (5R)—N^5-(2-Bromo-pyrid-5-yl)-(6R)—N^6-(3-amino-3-oxopropyl)-(4S,7R)-[4,7-ethenylene-spiro[2.4]heptane]-5,6-dicarboxamide]	5.9	6140
CC(C)CNC(=O)C1C(C(=O)Nc2ncc(Br)s2)C2C=CC1C21CC1 (stereo not drawn) [Example 245, (5R*)—N^5-(5-Bromo-thiazol-2-yl)-(6R*)—N^6-(isobutyl)-(4S*,7R*)-[4,7-ethenylene-spiro[2.4]heptane]-5,6-dicarboxamide]	3.9	8240
Cc1ccc(NC(=O)C2C(C(=O)NCCCCN3CCCC3)C3C=CC2C32CC2)cn1 (stereo not drawn) [Example 253, (5R*)—N^5-(2-Methyl-pyridin-5-yl)-(6R*)—N^6-(4-pyrrolidin-1-yl-butyl)-(4S*,7R*)-[4,7-ethenylene-spiro[2.4]heptane]-5,6-dicarboxamide]	131	1770
O=C(NCCCCN1CCCC1)[C@H]1[C@H](C(=O)Nc2ccc(Br)nc2)[C@@H]2C=C[C@H]1C21CC1 [Example 258, (5R)—N^5-(2-Bromo-pyridin-5-yl)-(6R)—N^6-(4-pyrrolidin-1-yl-butyl)-(4S,7R)-[4,7-ethenylene-spiro[2.4]heptane]-5,6-dicarboxamide]	1.1	173
